# Experimental data: ChEMBL document CHEMBL1132827, “New multidrug resistance modulators from Atractylodis Lanceae Rhizoma” (2000)
# What was measured:
# [1] = tested on: KB 3-1; test: Cytotoxicity (1 ug/mL) was evaluated against KB-3-1 cell lines by observing the effect on growth of cells tested; type: functional, Homo sapiens
# [2] = tested on: KB 3-1; test: Cytotoxicity (10 ug/mL) was evaluated against KB-3-1 cell lines by observing the effect on growth of cells tested; type: functional, Homo sapiens
# [3] = tested on: KB 3-1; test: Cytotoxicity (3 ug/mL) was evaluated against KB-3-1 cell lines by observing the effect on growth of cells tested; type: functional, Homo sapiens
# [4] = tested on: KB-C2; test: Inhibition of growth of KB-C2 cells at the dose of 1 ug/mL of compound in presence of 0.1 ug/mL of colchicine
# [5] = tested on: KB-C2; test: Inhibition of growth of KB-C2 cells at the dose of 3 ug/mL of compound in presence of 0.1 ug/mL of colchicine
# [6] = tested on: KB-C2; test: Inhibition of growth of KB-C2 cells at the dose of 10 ug/mL of compound in presence of 0.1 ug/mL of colchicine
Structure (SMILES),Inhibition [1],Inhibition [2],Inhibition [3],Inhibition [4],Inhibition [5],Inhibition [6]
CC(C)CC(=O)OC[C@H]1O[C@@](COC(=O)CC(C)C)(O[C@@H]2O[C@H](CO)[C@@H](O)[C@H](O)[C@H]2OC(=O)CC(C)C)[C@@H](OC(=O)CC(C)C)[C@@H]1O.CC[C@@H](C)C(=O)OC[C@@]1(O[C@@H]2O[C@H](CO)[C@@H](O)[C@H](O)[C@H]2OC(=O)CC(C)C)O[C@H](COC(=O)CC(C)C)[C@@H](O)[C@@H]1OC(=O)CC(C)C,17%,20%,19%,23%,32%,33%
CC(C)CC(=O)OC[C@H]1O[C@@](COC(=O)C(C)C)(O[C@@H]2O[C@H](CO)[C@@H](O)[C@H](O)[C@H]2OC(=O)CC(C)C)[C@@H](OC(=O)CC(C)C)[C@@H]1OC(=O)CC(C)C.CC(C)CC(=O)OC[C@H]1O[C@@](COC(=O)CC(C)C)(O[C@@H]2O[C@H](CO)[C@@H](O)[C@H](O)[C@H]2OC(=O)CC(C)C)[C@@H](OC(=O)CC(C)C)[C@@H]1OC(=O)C(C)C.CC[C@@H](C)C(=O)OC[C@@]1(O[C@@H]2O[C@H](CO)[C@@H](O)[C@H](O)[C@H]2OC(=O)CC(C)C)O[C@H](COC(=O)CC(C)C)[C@@H](OC(=O)C(C)C)[C@@H]1OC(=O)CC(C)C.CC[C@@H](C)C(=O)O[C@@H]1[C@@H](COC(=O)CC(C)C)O[C@@](COC(=O)C(C)C)(O[C@@H]2O[C@H](CO)[C@@H](O)[C@H](O)[C@H]2OC(=O)CC(C)C)[C@H]1OC(=O)CC(C)C,6%,94%,13%,38%,83%,96%
CC(C)CC(=O)OC[C@H]1O[C@@](COC(=O)CC(C)C)(O[C@H]2O[C@H](CO)[C@@H](O)[C@H](O)[C@H]2OC(=O)CC(C)C)[C@@H](OC(=O)CC(C)C)[C@@H]1OC(=O)CC(C)C.CC[C@@H](C)C(=O)OC[C@@]1(O[C@H]2O[C@H](CO)[C@@H](O)[C@H](O)[C@H]2OC(=O)CC(C)C)O[C@H](COC(=O)CC(C)C)[C@@H](OC(=O)CC(C)C)[C@@H]1OC(=O)CC(C)C.CC[C@@H](C)C(=O)O[C@@H]1[C@@H](COC(=O)CC(C)C)O[C@@](COC(=O)CC(C)C)(O[C@H]2O[C@H](CO)[C@@H](O)[C@H](O)[C@H]2OC(=O)CC(C)C)[C@H]1OC(=O)CC(C)C,11%,95%,14%,57%,86%,96%
